Source: PMC5564600 (Oncotarget, 2017)

Legend:
Format in all cases: binding
CLK2 = biological target: T1, CLK2 (Homo sapiens, UniProt P49760); assay: KINOMEscan, CLK2; settings: for remaining binding at 1 µM: read-out: % of control at 1 µM
T1 construct: purchased Ambit Biosciences (scanMAXX KINOMEscan)

CLK1 = biological target: T2, CLK1 (Homo sapiens, UniProt P49759); assay: KINOMEscan, CLK1; settings: for remaining binding at 1 µM: read-out: % of control at 1 µM
T2 construct: purchased Ambit Biosciences (scanMAXX KINOMEscan)
T2 sequence (P49759 whole entry): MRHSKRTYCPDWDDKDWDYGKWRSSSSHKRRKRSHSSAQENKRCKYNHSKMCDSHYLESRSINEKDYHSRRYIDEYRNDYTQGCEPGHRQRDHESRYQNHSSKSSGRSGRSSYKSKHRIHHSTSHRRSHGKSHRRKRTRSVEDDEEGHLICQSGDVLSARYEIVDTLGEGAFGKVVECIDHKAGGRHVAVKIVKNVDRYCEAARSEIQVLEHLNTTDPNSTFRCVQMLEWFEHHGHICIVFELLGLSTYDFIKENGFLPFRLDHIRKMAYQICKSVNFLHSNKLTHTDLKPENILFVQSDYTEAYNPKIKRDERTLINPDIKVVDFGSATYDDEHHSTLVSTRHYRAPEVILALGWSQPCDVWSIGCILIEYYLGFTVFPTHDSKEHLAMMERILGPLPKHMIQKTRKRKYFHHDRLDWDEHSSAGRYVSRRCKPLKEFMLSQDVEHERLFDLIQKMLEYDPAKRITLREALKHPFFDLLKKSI

PIK3C2G = biological target: T3, PIK3C2G (Homo sapiens, UniProt O75747); assay: KINOMEscan, PIK3C2G; settings: for remaining binding at 1 µM / remaining binding at 10 µM: kinase PIK3C2G; for remaining binding at 1 µM: read-out: % of control at 1 µM; for remaining binding at 10 µM: read-out: % of control at 10 µM
T3 construct: purchased Ambit Biosciences (scanMAXX KINOMEscan)
T3 sequence (O75747 1-1486): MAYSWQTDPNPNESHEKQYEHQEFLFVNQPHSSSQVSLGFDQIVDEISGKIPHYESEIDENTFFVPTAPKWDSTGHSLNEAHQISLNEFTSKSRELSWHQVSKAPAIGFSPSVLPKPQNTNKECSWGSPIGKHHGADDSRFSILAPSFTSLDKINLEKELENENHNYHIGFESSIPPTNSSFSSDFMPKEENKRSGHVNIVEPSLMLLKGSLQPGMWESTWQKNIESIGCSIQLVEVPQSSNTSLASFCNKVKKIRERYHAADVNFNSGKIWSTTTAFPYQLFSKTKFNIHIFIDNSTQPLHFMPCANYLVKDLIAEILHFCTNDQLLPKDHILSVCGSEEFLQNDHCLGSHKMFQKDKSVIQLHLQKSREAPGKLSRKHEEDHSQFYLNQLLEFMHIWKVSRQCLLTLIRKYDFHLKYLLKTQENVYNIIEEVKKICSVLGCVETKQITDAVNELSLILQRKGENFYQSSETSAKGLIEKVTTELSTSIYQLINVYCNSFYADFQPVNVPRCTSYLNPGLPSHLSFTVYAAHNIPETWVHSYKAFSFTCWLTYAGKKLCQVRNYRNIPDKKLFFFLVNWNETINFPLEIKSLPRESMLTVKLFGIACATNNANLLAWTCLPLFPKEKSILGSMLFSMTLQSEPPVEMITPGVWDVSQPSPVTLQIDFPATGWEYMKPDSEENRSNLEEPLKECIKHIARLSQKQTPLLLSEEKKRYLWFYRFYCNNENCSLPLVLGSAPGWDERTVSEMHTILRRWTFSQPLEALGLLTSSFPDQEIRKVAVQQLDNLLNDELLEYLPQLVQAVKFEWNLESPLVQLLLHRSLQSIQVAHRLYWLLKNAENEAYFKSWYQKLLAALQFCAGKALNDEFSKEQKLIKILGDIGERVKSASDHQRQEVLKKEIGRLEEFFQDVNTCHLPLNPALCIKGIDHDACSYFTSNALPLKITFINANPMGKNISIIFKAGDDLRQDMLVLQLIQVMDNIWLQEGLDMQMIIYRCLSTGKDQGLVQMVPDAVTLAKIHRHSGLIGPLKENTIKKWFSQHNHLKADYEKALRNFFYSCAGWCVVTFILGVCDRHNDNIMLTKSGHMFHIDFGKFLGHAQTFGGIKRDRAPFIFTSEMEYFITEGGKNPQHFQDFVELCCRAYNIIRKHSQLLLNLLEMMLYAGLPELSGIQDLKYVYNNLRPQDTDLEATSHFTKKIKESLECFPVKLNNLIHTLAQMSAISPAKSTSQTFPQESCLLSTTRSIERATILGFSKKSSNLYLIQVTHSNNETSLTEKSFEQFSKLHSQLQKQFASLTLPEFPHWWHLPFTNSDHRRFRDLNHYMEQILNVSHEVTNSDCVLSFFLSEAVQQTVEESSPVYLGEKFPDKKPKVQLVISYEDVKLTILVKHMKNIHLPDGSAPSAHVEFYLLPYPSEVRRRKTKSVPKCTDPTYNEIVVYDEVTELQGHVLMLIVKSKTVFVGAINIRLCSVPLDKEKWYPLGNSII

[1] = biological target: T4, pseudokinase JH2 domain of JAK1 (Homo sapiens, UniProt P23458); assay: KINOMEscan, JAK1 JH2 domain; settings: for remaining binding at 1 µM / remaining binding at 10 µM: kinase JAK1(JH2domain-pseudokinase); for remaining binding at 1 µM: read-out: % of control at 1 µM; for remaining binding at 10 µM: read-out: % of control at 10 µM
T4 construct: the pseudokinase JH2 domain of JAK1 (89%); purchased Ambit Biosciences (scanMAXX KINOMEscan)
T4 sequence (P23458 583-855 limits assumed): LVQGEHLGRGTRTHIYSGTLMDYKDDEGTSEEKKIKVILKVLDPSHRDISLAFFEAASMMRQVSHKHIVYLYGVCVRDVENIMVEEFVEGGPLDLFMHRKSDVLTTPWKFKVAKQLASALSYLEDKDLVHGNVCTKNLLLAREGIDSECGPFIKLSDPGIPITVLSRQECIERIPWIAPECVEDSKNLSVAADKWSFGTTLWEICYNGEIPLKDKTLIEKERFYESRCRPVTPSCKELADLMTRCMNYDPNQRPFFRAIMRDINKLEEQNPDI

[2] = biological target: T5, catalytic JH1 domain of JAK1 (Homo sapiens, UniProt P23458); assay: KINOMEscan, JAK1 JH1 domain; settings: for remaining binding at 1 µM / remaining binding at 10 µM: kinase JAK1(JH1domain-catalytic); for remaining binding at 1 µM: read-out: % of control at 1 µM; for remaining binding at 10 µM: read-out: % of control at 10 µM
T5 construct: the catalytic JH1 domains of JAK1 and JAK2; purchased Ambit Biosciences (scanMAXX KINOMEscan)
T5 sequence (P23458 875-1153 limits assumed): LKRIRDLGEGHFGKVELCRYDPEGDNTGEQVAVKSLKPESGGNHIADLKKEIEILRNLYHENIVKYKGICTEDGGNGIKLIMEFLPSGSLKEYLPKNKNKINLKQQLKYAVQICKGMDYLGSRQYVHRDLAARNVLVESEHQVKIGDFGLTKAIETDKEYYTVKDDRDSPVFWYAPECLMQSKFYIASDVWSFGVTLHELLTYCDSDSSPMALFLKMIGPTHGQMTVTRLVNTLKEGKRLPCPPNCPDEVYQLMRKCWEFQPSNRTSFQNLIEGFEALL

ERBB3 = biological target: T6, ERBB3 (Homo sapiens, UniProt P21860); assay: KINOMEscan, ERBB3; settings: for remaining binding at 1 µM / remaining binding at 10 µM: ERBB3; for remaining binding at 1 µM: read-out: % of control at 1 µM; for remaining binding at 10 µM: read-out: % of control at 10 µM
T6 construct: purchased Ambit Biosciences (scanMAXX KINOMEscan)
T6 sequence (P21860 20-1342): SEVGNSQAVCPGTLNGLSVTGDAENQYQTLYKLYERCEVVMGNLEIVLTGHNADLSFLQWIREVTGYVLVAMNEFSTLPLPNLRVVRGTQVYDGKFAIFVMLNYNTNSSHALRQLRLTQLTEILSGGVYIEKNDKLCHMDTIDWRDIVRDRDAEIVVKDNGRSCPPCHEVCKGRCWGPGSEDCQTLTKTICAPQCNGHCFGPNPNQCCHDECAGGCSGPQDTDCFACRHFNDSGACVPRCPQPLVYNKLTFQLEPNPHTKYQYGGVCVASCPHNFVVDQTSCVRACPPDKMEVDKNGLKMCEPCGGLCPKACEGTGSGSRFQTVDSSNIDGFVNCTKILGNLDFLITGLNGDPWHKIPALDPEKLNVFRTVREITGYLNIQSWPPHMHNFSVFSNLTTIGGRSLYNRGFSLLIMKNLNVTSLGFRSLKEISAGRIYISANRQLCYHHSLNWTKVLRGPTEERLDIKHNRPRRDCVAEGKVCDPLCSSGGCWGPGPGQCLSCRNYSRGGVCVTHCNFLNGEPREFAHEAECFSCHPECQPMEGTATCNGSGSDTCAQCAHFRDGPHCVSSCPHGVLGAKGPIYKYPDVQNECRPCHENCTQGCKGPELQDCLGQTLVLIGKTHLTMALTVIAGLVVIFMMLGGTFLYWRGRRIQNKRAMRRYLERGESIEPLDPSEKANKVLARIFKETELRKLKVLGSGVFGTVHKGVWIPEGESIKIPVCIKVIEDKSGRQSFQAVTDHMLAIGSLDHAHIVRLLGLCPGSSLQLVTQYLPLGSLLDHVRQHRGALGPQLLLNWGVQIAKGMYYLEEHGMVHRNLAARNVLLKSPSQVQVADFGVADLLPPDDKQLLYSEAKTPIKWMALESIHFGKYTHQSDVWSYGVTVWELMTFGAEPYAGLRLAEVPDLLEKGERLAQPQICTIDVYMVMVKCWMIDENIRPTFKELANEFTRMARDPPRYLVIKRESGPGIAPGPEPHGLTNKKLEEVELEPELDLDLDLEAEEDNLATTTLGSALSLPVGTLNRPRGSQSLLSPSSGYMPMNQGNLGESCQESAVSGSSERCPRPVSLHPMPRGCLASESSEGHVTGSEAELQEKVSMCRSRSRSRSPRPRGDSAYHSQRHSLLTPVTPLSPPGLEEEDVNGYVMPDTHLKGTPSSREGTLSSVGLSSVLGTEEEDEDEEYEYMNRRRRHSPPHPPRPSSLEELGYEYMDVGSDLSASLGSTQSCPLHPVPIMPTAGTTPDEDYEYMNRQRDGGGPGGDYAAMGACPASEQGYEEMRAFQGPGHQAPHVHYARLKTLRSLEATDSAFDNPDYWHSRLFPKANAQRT

[3] = biological target: T7, catalytic JH1 domain of JAK2 (Homo sapiens, UniProt O60674); assay: KINOMEscan, JAK2 JH1 domain; settings: for remaining binding at 1 µM / remaining binding at 10 µM: kinase JAK2(JH1domain-catalytic); for remaining binding at 1 µM: read-out: % of control at 1 µM; for remaining binding at 10 µM: read-out: % of control at 10 µM
T7 construct: the catalytic JH1 domains of JAK1 and JAK2; purchased Ambit Biosciences (scanMAXX KINOMEscan)
T7 sequence (O60674 849-1124 limits assumed): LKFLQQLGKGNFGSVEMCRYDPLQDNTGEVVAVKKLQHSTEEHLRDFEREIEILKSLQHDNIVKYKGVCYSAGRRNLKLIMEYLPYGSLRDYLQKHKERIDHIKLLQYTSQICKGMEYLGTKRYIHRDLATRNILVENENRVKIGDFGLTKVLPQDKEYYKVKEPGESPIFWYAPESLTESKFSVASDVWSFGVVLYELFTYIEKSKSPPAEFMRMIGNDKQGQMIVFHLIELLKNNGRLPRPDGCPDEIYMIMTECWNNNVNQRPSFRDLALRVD

PIK3C2B = biological target: T8, PIK3C2B (Homo sapiens, UniProt O00750); assay: KINOMEscan, PIK3C2B; settings: for remaining binding at 1 µM / remaining binding at 10 µM: kinase PIK3C2B; for remaining binding at 1 µM: read-out: % of control at 1 µM; for remaining binding at 10 µM: read-out: % of control at 10 µM
T8 construct: purchased Ambit Biosciences (scanMAXX KINOMEscan)
T8 sequence (O00750 whole entry): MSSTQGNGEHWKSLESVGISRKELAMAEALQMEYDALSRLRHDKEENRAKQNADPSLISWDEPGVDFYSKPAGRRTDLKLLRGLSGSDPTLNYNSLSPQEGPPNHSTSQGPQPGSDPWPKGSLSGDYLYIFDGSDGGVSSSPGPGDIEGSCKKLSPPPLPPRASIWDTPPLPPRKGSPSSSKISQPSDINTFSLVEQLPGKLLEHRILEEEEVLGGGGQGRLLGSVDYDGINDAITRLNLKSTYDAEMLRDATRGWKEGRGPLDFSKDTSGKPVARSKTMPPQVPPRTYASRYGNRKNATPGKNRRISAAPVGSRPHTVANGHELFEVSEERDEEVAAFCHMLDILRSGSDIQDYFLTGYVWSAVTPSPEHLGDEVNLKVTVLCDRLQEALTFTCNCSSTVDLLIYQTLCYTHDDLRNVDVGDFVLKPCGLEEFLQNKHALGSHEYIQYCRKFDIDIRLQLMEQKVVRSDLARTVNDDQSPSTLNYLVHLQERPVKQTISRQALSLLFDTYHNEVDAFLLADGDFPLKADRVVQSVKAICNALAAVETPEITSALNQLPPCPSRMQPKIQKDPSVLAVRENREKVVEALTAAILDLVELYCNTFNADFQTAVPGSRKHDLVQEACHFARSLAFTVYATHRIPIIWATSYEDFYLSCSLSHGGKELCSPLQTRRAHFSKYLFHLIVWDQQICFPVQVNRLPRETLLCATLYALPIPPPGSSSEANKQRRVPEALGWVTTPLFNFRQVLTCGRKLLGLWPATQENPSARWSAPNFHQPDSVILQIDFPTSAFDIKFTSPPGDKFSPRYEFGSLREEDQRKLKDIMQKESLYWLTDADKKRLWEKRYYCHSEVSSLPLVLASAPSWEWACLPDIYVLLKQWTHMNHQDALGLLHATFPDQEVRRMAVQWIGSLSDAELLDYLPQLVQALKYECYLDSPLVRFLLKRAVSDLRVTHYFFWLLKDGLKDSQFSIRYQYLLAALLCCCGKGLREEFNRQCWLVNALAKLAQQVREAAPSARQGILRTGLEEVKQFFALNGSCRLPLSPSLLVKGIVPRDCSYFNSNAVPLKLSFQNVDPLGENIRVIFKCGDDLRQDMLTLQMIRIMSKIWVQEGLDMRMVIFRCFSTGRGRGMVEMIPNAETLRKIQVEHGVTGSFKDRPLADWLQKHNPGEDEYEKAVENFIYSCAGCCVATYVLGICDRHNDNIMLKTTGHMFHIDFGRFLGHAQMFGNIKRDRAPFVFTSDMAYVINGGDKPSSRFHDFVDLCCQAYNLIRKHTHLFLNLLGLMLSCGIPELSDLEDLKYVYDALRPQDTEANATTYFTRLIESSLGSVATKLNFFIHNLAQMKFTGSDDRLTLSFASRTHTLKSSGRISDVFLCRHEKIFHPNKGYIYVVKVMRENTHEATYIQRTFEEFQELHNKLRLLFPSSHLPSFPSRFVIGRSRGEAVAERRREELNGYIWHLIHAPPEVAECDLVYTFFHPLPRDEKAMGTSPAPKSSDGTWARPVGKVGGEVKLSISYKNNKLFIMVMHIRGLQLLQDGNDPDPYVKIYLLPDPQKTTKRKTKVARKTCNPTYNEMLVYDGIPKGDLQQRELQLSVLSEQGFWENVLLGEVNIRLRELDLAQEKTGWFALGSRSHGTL

panel of 442 kinases [4] = biological target: panel of 442 kinases (Homo sapiens, UniProt P42336, E545A); assay: biochemical; settings: kinase PIK3CA(E545A); 1 µM; read-out: % of control at 1 µM
panel of 442 kinases [5] = biological target: panel of 442 kinases (Homo sapiens, UniProt P42336, E542K); assay: biochemical; settings: kinase PIK3CA(E542K); 1 µM; read-out: % of control at 1 µM
panel of 442 kinases [6] = biological target: panel of 442 kinases (Homo sapiens, UniProt P42336, H1047Y); assay: biochemical; settings: kinase PIK3CA(H1047Y); 1 µM; read-out: % of control at 1 µM
panel of 442 kinases [7] = biological target: panel of 442 kinases (Homo sapiens, UniProt P42336, I800L); assay: biochemical; settings: kinase PIK3CA(I800L); 1 µM; read-out: % of control at 1 µM
panel of 442 kinases [8] = biological target: panel of 442 kinases (Homo sapiens, UniProt P42336, E545K); assay: biochemical; settings: kinase PIK3CA(E545K); 1 µM; read-out: % of control at 1 µM
panel of 442 kinases [9] = biological target: panel of 442 kinases (Homo sapiens, UniProt P42336, M1043I); assay: biochemical; settings: kinase PIK3CA(M1043I); 1 µM; read-out: % of control at 1 µM

T1 sequence (P49760 whole entry): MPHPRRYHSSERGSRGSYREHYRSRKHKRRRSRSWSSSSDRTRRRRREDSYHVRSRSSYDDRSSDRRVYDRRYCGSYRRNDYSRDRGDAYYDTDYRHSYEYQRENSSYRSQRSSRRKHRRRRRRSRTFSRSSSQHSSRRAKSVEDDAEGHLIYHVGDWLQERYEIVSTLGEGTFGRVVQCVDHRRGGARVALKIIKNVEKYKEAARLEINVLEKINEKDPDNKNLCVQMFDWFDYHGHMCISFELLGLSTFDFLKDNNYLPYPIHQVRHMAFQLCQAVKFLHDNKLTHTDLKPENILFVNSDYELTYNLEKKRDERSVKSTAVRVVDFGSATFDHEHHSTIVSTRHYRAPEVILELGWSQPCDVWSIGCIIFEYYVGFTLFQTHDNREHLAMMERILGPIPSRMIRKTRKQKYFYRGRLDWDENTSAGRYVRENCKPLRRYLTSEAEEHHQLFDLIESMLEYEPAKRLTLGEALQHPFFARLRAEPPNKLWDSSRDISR

With Nc1cc(C(F)(F)F)c(-c2cc(N3CCOCC3)nc(N3CCOCC3)n2)cn1 [Buparlisib] the “binding to CLK2” value (CLK2; 10 μM) was greater than 80%, the remaining binding at 1 µM (CLK2; CLK2) was 29% and the remaining binding at 10 µM (CLK2; CLK2, 10 µM, read-out: % of control at 10 µM) was 18%. The “binding to CLK1” value (CLK1; 10 μM) was greater than 80%, the remaining binding at 1 µM (CLK1; CLK1) was 42% and the remaining binding at 10 µM (CLK1; CLK1, 10 µM, read-out: % of control at 10 µM) was 5.3%. The remaining binding at 1 µM (PIK3C2G) was 97%, the remaining binding at 10 µM (PIK3C2G) was 35% and the remaining binding at 1 µM [1] was 89%. For the same compound, the remaining binding at 10 µM [1] was 76%, the remaining binding at 1 µM [2] was 96% and the remaining binding at 10 µM [2] was 100%. It also gave a remaining binding at 1 µM (ERBB3) of 100%, a remaining binding at 10 µM (ERBB3) of 90% and a remaining binding at 1 µM [3] of 63%. For the same compound, the remaining binding at 10 µM [3] was 79%, the remaining binding at 1 µM (PIK3C2B) was 97% and the remaining binding at 10 µM (PIK3C2B) was 100%.

Work on Cn1c(=O)n(-c2ccc(C(C)(C)C#N)cc2)c2c3cc(-c4cnc5ccccc5c4)ccc3ncc21 [Dactolisib, 2-methyl-2-[4-(3-methyl-2-oxo-8-quinolin-3-yl-2,3-dihydroimidazo[4,5-c]quinolin-1-yl)-phenyl] propionitrile] yielded a remaining binding at 1 µM (CLK2; CLK2) of 81%, an inhibition at 1 µM (CLK1; 1 μM) greater than 80% and a remaining binding at 1 µM (CLK1; CLK1) of 13%. It also gave an inhibition at 1 µM (PIK3C2G; 1 μM) greater than 80%, a remaining binding at 1 µM (PIK3C2G) of 0% and a remaining binding at 1 µM [1] of 43%. It also gave an inhibition at 1 µM ([2]; 1 μM) greater than 80%, a remaining binding at 1 µM [2] of 12% and an inhibition at 1 µM (ERBB3; 1 μM) greater than 80%. For the same compound, the remaining binding at 1 µM (ERBB3) was 9.2%, the remaining activity at 1 µM (panel of 442 kinases [4]) was 9.2% and the remaining activity at 1 µM (panel of 442 kinases [5]) was 6.4%. The remaining activity at 1 µM (panel of 442 kinases [6]) was 3.8%, the remaining activity at 1 µM (panel of 442 kinases [7]) was 0% and the remaining activity at 1 µM (panel of 442 kinases [8]) was 5.5%. For the same compound, the remaining activity at 1 µM (panel of 442 kinases [9]) was 1.4%, the inhibition at 1 µM ([3]; 1 μM) was greater than 80% and the remaining binding at 1 µM [3] was 8.2%. For the same compound, the inhibition at 1 µM (PIK3C2B; 1 μM) was greater than 80% and the remaining binding at 1 µM (PIK3C2B) was 9.9%.

With COc1ncc(-c2ccc3nccc(-c4ccnnc4)c3c2)cc1NS(=O)(=O)c1ccc(F)cc1F [Omipalisib] the remaining binding at 1 µM (CLK2; CLK2) was 92%, the remaining binding at 1 µM (CLK1; CLK1) was 96% and the “off-target binding to PIK3C2G” value (PIK3C2G; 1 μM) was “non-selective”. It also gave a remaining binding at 1 µM (PIK3C2G) of 0%, a remaining binding at 1 µM [1] of 57% and a remaining binding at 1 µM [2] of 100%. It also gave a remaining binding at 1 µM (ERBB3) of 95%, a remaining activity at 1 µM (panel of 442 kinases [4]) of 0% and a remaining activity at 1 µM (panel of 442 kinases [5]) of 0.05%. It also gave a remaining activity at 1 µM (panel of 442 kinases [6]) of 0%, a remaining activity at 1 µM (panel of 442 kinases [7]) of 3.8% and a remaining activity at 1 µM (panel of 442 kinases [8]) of 0.1%. For the same compound, the remaining activity at 1 µM (panel of 442 kinases [9]) was 0%, the remaining binding at 1 µM [3] was 90% and the “off-target binding to PIK3C2B” value (PIK3C2B; 1 μM) was “non-selective”. For the same compound, the remaining binding at 1 µM (PIK3C2B) was 0%.

For CS(=O)(=O)N1CCN(Cc2cc3nc(-c4cccc5[nH]ncc45)nc(N4CCOCC4)c3s2)CC1 [Pictilisib, 2-(1H-indazol-4-yl)-6-(4-methanesulfonyl-piperazin-1-ylmethyl)-4-morpholin-4-yl-t hieno[3,2-d]pyrimidine], the “off-target activity against PIK3C2G” value (PIK3C2G; 10 μM) was “active”, the remaining binding at 1 µM (PIK3C2G) was 32% and the remaining binding at 10 µM (PIK3C2G) was 2.1%. For the same compound, the inhibition at 1 µM ([1]; 1 μM) was 89%, the remaining binding at 1 µM [1] was 11% and the remaining binding at 10 µM [1] was 0.85%. The remaining binding at 1 µM [2] was 100%, the remaining binding at 10 µM [2] was 100% and the remaining binding at 1 µM (ERBB3) was 100%. The remaining binding at 10 µM (ERBB3) was 96%, the remaining binding at 1 µM [3] was 100% and the remaining binding at 10 µM [3] was 26%. For the same compound, the “off-target activity against PIK3C2B” value (PIK3C2B; 10 μM) was “active”, the remaining binding at 1 µM (PIK3C2B) was 54% and the remaining binding at 10 µM (PIK3C2B) was 0.45%.

FC(F)c1nc2ccccc2n1-c1nc(N2CCOCC2)nc(N2CCOCC2)n1 [ZSTK474, 2-(difluoromethyl)-1-[4,6-di(4-morpholinyl)-1,3,5-triazin-2-yl]-1H-benzimidazole] was tested, and the remaining binding at 1 µM (CLK2; CLK2) was 100%, the remaining binding at 1 µM (CLK1; CLK1) was 100% and the “off-target binding to PIK3C2G” value (PIK3C2G; 1 μM) was “high binding affinity”. For the same compound, the remaining binding at 1 µM (PIK3C2G) was 0%, the remaining binding at 1 µM [1] was 100% and the remaining binding at 1 µM [2] was 98%. For the same compound, the remaining binding at 1 µM (ERBB3) was 24%, the remaining binding at 1 µM [3] was 100% and the “off-target binding to PIK3C2B” value (PIK3C2B; 1 μM) was “high binding affinity”. It also gave a remaining binding at 1 µM (PIK3C2B) of 0.85%.
